Series [1] relates to mice. Description: Open field test (anxiety-related behavior). Format: in vivo. As to conditions: 10 mg·kg−1 i.p. 30 min before, 10 min exploration. The procedure:
Anxiety-related behavior was assessed using the open field test (OF; Mouse Open Field Arena ENV-510; Med Associates Inc., Fairfax, VT, USA). […] The two regions were defined by grid lines that divided each box into the center and periphery, with each of the four lines being 11 cm from each wall.

Another series can be described thus: Brain/plasma ratio (B/P). Format: in vivo. As to conditions: mice. Here is the method: (§1) Tissues were homogenized with a mini-bead beater (BioSpec Products, Bartlesville, OK) in 10 volumes of acetonitrile containing 15 ng of internal standard, JM-00252. Blood samples were centrifuged at 6500× g during 10 min 4 °C and 5 µL of plasma were diluted in 10 volumes of acetonitrile containing 15 ng of internal standard. Then, each homogenate of tissue or plasma was centrifuged for 10 min at 6500× g and the supernatant was recovered and carefully transferred to new glass tubes. Finally, the extract was injected into a 1200 LC system coupled to a 6460-QqQ MS/MS system equipped with a JetStream ESI source (Agilent technologies, Les Ulis, France). Separation was achieved on a Poroshell 120 EC-C8 2.1 mm × 100 mm, 2.7 µm column (Agilent technologies) at a flow rate of 0.4 mL.min^−1, 55 °C, with a linear gradient of (solvent A) water containing 1 mM ammonium formate and 0.2% formic acid and (solvent B) methanol containing 1 mM ammonium formate and 0.2% formic acid and as follows: 50% B for 1 min, up to 100% B in 4 min, and then maintained at 100% for 2 min. The acquisition was performed in positive Single Reaction Monitoring (SRM) mode (source temperature: 300 °C, nebulizer gas flow rate was 10 L·min^−1, 15 psi, sheath gas flow 7 L·min^−1, temperature 225 °C, capillary 4000 V, nozzle 1500 V). […] Results are expressed as ng·g^−1 for tissues and ng·mL^−1 for plasma.
Brain/plasma ratios (B/P) were determined as previously described. […] Blood and brain were collected and directly extracted for further analysis by LC-MS/MS.

Series [2] concerns mice. The experiment in a line: In vivo lipolysis: plasma glycerol appearance after BRL37344. As to conditions: JM-00266 i.p. 4 h before BRL37344 5 mg·kg−1 i.p. The procedure: In vivo experiments. Overnight-fasted mice were injected i.p. with JM-00266 (mg·kg^−1) or vehicle. Four hours later, mice were injected i.p. with the specific ß3-adrenergic receptor agonist, BRL37344 (5 mg·kg^−1). Blood samples (~25 µL) were collected from tails in tubes containing EDTA (Sarstedt, Nümbrecht, Germany) at times 0, 15, 30, 45 and 60 min after BRL37344 injection to measure plasma glycerol appearance using a colorimetric assay (glycerol FS, DiaSys, Condom, France).

A short description of series [3]: Tissue distribution 4 h after gavage. Format: in vivo. As to conditions: mice, 4 h after gavage in oil, 10 mg·kg−1. Here is the method: At 1, 2, 4 and 8 h post-administration, animals were killed by cervical dislocation and blood was collected from the vena cava into tubes containing heparin and centrifuged immediately at 6500× g for 10 min at 4 °C. For determination of tissue distribution, brain, liver and adipose tissue were collected 4 h post-gavage. Plasma and tissue samples were directly extracted for further analysis by Liquid chromatography coupled to tandem mass spectrometry (LC-MS/MS).
as §1

For series [4], the system named is visceral adipose tissue explants. The experiment in a line: In vitro lipolysis: glycerol release by adipose tissue explants from treated mice. As to conditions: explants from mice injected with JM-00266 10 mg·kg−1 4 h before sacrifice, 1 h culture. Here is the method:
In vitro experiments. Overnight-fasted mice were injected i.p. with JM-00266 (mg·kg^−1) or vehicle. Four hours later, mice were anesthetized with pentobarbital (50 mg·kg^−1) and epididymal adipose tissue was collected, rinsed in a warm medium (DMEM-HAM/F12) supplemented with 1% BSA, and dissected into ~10 mg pieces. Then, 5–6 explants were incubated in a 5% CO2 atmosphere at 37 °C under slight agitation in 1 mL of the same medium. Free glycerol in the culture medium was determined after 1 h of incubation using a colorimetric assay (glycerol FS, DiaSys).

For series [5], the system named is mice. Description: Body (rectal) temperature measurement. Format: in vivo. The procedure:
Mice rectal temperature was assessed using a VT4810 controller (Vertex Technology Corp., New Taipei City, Taiwan) adapted with a mouse rectal probe. In the first experiment, the impact of anandamide (10 mg·kg^−1) on body temperature was recorded during 30 min on animals injected either 20 min earlier with vehicle or JM-00266 (20 mg·kg^−1).

Structures are written as SMILES.

Usually Kp stands for tissue or fluid exposure divided by exposure in the circulation. With `CSc1ccc(C2C(N3C(=O)c4ccccc4C3=O)C(=O)N2c2ccc(SC)cc2)cc1` (stereo not drawn) [JM-00266, 1,4-di-(4-méthylthiophenyl)-3-phthaloylazetidin-2-one], in the series on mice [1], the “Open field: locomotor activity (total ambulatory distance)” value is “did not alter”, the “Open field: number of center entries” value is on record as “did not alter” and the “Open field: time spent in the center” value is “did not alter”. The “Brain/plasma ratio (B/P)” value in the series “Brain/plasma ratio (B/P)” (10 mg·kg−1, i.p. or oral, DMSO/Tween 80 aqueous solution, at maximal absorption time point) is given as “significantly lower”. Moreover, in the series “Brain/plasma ratio (B/P)” (10 mg·kg−1, i.p. vs oral), the “Effect of the administration route on distribution in brain and plasma” value was “not modified”. In addition, the Kp in “Brain/plasma ratio (B/P)” (mouse, brain, intraperitoneal, 10 mg·kg−1, i.p. or oral, DMSO/Tween 80 aqueous solution, at maximal absorption time point) was in the range of 0.3 to 0.5. For the same compound, the “ß-adrenergic-induced glycerol production (plasma glycerol) vs vehicle” value in the series with mice [2] is “increased”. Further, in series [3], the “Concentrations in plasma and tissues compared with Rimonabant” value was “lower concentrations in plasma and tissues than Rimonabant”; the “Tissue distribution (plasma, brain, liver, visceral adipose tissue)” value was “preferentially accumulated in the liver and the adipose tissue whereas brain concentration remained very low”. Moreover, in series [4], the “Glycerol release by visceral adipose tissue explants vs control” value is reported as “higher than in the control”. In addition, in the series on mice [5] (JM-00266 20 mg·kg−1 20 min before anandamide 10 mg·kg−1, 30 min recording), the “Effect on anandamide-induced decrease in rectal temperature” value is given as “not able to counteract the decrease in rectal temperature”. Also, the “Effect on hypothermic response to ACEA” value in the series with mice [5] (pre-treatment 20 min before ACEA 1 mg·kg−1, Rimonabant 10 mg·kg−1, JM-00266 20 mg·kg−1, t = 30 min) is on record as “had no effect”.

(Values after article PMC8949893, “Chemical Synthesis, Pharmacokinetic Properties and Biological Effects of JM-00266, a Putative Non-Brain Penetrant Cannabinoid Receptor 1 Inverse Agonist” (International Journal of Molecular Sciences, 2022).)
